Experiments:
cS1P5 receptor [1] = target: T1, cS1P5 receptor (Canis lupus familiaris, UniProt A0A8I3Q0H0); assay: 35S-GTPγS binding assay with membranes from transfected CHO cells expressing the cS1P5 receptor; format: biochemical, Canis (dog); conditions: 5 μM GDP, 100 pM 35S-GTPγS, one hour at room temperature, FIG. 4, read-out: EC50 (35S-GTPγS binding, coupling GTP to Gα)
Method: Functional coupling of S1P5 receptor to G proteins was measured in a ^35S-GTPγS binding assay. Membranes were prepared from transfected cells by homogenization in ice cold 20 mM HEPES pH 7.4, 10 mM EDTA using a Kinematica polytron (setting 5, for 10 seconds). Homogenates were centrifuged at 48,000×g for 15 minutes at 4° C. and the pellet suspended in 20 mM HEPES pH 7.4, 0.1 mM EDTA. Following a second centrifugation, the final pellet was suspended in 20 mM HEPES pH 7.4, 100 mM NaCl, 10 mM MgCl2. Membranes were incubated in 200 μL with 5 μM GDP, various concentrations of S1P (sonicated in 1% BSA), and 100 pM ^35S-GTPγS (NEN; specific activity 1250 Ci/mmol) in 96 well microtiter dishes. Binding was performed for one hour at room temperature, and terminated by harvesting the membranes onto GF/B filter plates with a Packard Filtermate Universal Harvester. After drying the filter plates for 30 min, 40 μL of MICROSCINT 20 was added to each well and binding was measured on a Packard Top Count scintillation counter.

cS1P5 receptor [2] = target: T1, cS1P5 receptor; assay: S1P ligand binding assay with transfected CHO cells expressing the cS1P5 receptor; design: species or system Canis (dog); conditions: 33P-S1P, 60 minutes at room temperature, FIG. 3
Method: The transfected CHO cells from Example 2 expressing the cS1P5 receptor were evaluated for the ability of the cS1P5 receptor expressed in the cells to properly integrate into the cell membrane and bind S1P.
Transfected CHO cells from Example 2 were harvested with enzyme-free dissociation solution (Specialty Media, Lavallette, N.J.). The cells were washed once in cold PBS and suspended in S1P binding buffer (50 mM HEPES-Na, pH 7.5, 5mM MgCl2, 1 mM CaCl2, 0.5% FAF-BSA). ^33P-S1P was synthesized enzymatically from γ^33P-ATP and sphingosine using a crude extract with sphingosine kinase activity in a reaction mix containing 50 mM KH2PO4, 1 mM mercaptoethanol, 1 mM Na3VO4, 25 mM KF, 2 mM semicarbazide, 1 mM Na2EDTA, 5 mM MgCl2, […], 0.1% TritonX-114, and 1 mCi γ^33P-ATP (NEN; specific activity 2000 Ci/mmol). Reaction products were extracted with butanol and ^33P-sphingosine-1-phosphate was purified by HPLC.
^33P-S1P (0.1 uCi/ml) was sonicated with 0.2 nM sphingosine-1-phosphate dissolved in binding buffer; 100 μL of the mixture was added to 100 μL cells (1×10^5). Binding was performed for 60 minutes at room temperature. […] After drying the filter plates for 30 minutes, 50 μL of MICROSCINT 20 was added to each well and binding was measured with a Packard Top Count. Non-specific binding was defined as the amount of radioactivity remaining in the presence of 200 nM cold S1P.

For `CCCCCCCCCCCCC/C=C/[C@@H](O)[C@@H](N)COP(=O)(O)O` [S1P, sphingosine-1-phosphate], the EC50 (cS1P5 receptor [1]) was ~0.79 nM and the EC50 (cS1P5 receptor [2]) was ~0.21 nM.
